Test results as given in ChEMBL document CHEMBL5360558, “Molecular design, synthesis and anticancer activity of new thiopyrano[2,3-d]thiazoles based on 5-hydroxy-1,4-naphthoquinone (juglone)” (Eur J Med Chem, 2023).
Active and inactive are the calls of the source. The calls are words filed in the database; no cut-off is given here.

What was measured:
[1] = system: BT-549; assay: Anticancer activity against human BT-549 cells assessed as cell growth at 10 uM incubated for 48 hrs by sulforhodamine B assay; type: functional; conditions: read-out: Activity
[2] = system: CCRF-CEM; assay: Growth inhibition of human CCRF-CEM cells incubated for 48 hrs by sulforhodamine B spectrophotometric assay; type: functional
[3] = system: RPMI-8226; assay: Growth inhibition of human RPMI-8226 cells incubated for 48 hrs by sulforhodamine B spectrophotometric assay; type: functional
[4] = system: EKVX; assay: Growth inhibition of human EKVX cells incubated for 48 hrs by sulforhodamine B spectrophotometric assay; type: functional
[5] = system: HOP-62; assay: Growth inhibition of human HOP-62 cells incubated for 48 hrs by sulforhodamine B spectrophotometric assay; type: functional
[6] = system: SF-268; assay: Growth inhibition of human SF-268 cells incubated for 48 hrs by sulforhodamine B spectrophotometric assay; type: functional
[7] = system: U-251; assay: Growth inhibition of human U-251 cells incubated for 48 hrs by sulforhodamine B spectrophotometric assay; type: functional
[8] = system: Malme-3M; assay: Growth inhibition of human Malme-3M cells incubated for 48 hrs by sulforhodamine B spectrophotometric assay; type: functional
[9] = system: M14; assay: Growth inhibition of human M14 cells incubated for 48 hrs by sulforhodamine B spectrophotometric assay; type: functional
[10] = system: SK-MEL-28; assay: Growth inhibition of human SK-MEL-28 cells incubated for 48 hrs by sulforhodamine B spectrophotometric assay; type: functional
[11] = system: SK-MEL-5; assay: Growth inhibition of human SK-MEL-5 cells incubated for 48 hrs by sulforhodamine B spectrophotometric assay; type: functional
[12] = system: UACC-62; assay: Growth inhibition of human UACC-62 cells incubated for 48 hrs by sulforhodamine B spectrophotometric assay; type: functional
[13] = system: OVCAR-5; assay: Growth inhibition of human OVCAR-5 cells incubated for 48 hrs by sulforhodamine B spectrophotometric assay; type: functional
[14] = system: UO-31; assay: Growth inhibition of human UO-31 cells incubated for 48 hrs by sulforhodamine B spectrophotometric assay; type: functional
[15] = system: DU-145; assay: Growth inhibition of human DU-145 cells incubated for 48 hrs by sulforhodamine B spectrophotometric assay; type: functional
[16] = system: BT-549; assay: Growth inhibition of human BT-549 cells incubated for 48 hrs by sulforhodamine B spectrophotometric assay; type: functional
[17] = system: HOP-62; assay: Growth inhibition against human HOP-62 cells assessed as total growth inhibitory concentration incubated for 48 hrs by sulforhodamine B spectrophotometric assay; type: functional
[18] = system: HCC 2998; assay: Growth inhibition against human HCC 2998 cells assessed as total growth inhibitory concentration incubated for 48 hrs by sulforhodamine B spectrophotometric assay; type: functional
[19] = system: HCT-116; assay: Growth inhibition against human HCT-116 cells assessed as total growth inhibitory concentration incubated for 48 hrs by sulforhodamine B spectrophotometric assay; type: functional
[20] = system: SNB-75; assay: Growth inhibition against human SNB-75 cells assessed as total growth inhibitory concentration incubated for 48 hrs by sulforhodamine B spectrophotometric assay; type: functional
[21] = system: U-251; assay: Growth inhibition against human U-251 cells assessed as total growth inhibitory concentration incubated for 48 hrs by sulforhodamine B spectrophotometric assay; type: functional
[22] = system: LOX IMVI; assay: Growth inhibition against human LOX IMVI cells assessed as total growth inhibitory concentration incubated for 48 hrs by sulforhodamine B spectrophotometric assay; type: functional
[23] = system: MDA-MB-435; assay: Growth inhibition against human MDA-MB-435 cells assessed as total growth inhibitory concentration incubated for 48 hrs by sulforhodamine B spectrophotometric assay; type: functional
[24] = system: UACC-257; assay: Growth inhibition against human UACC-257 cells assessed as total growth inhibitory concentration incubated for 48 hrs by sulforhodamine B spectrophotometric assay; type: functional
[25] = system: RXF 393; assay: Growth inhibition against human RXF 393 cells assessed as total growth inhibitory concentration incubated for 48 hrs by sulforhodamine B spectrophotometric assay; type: functional
[26] = system: SN12C; assay: Growth inhibition against human SN12C cells assessed as total growth inhibitory concentration incubated for 48 hrs by sulforhodamine B spectrophotometric assay; type: functional
[27] = system: MCF7; assay: Growth inhibition against human MCF7 cells assessed as total growth inhibitory concentration incubated for 48 hrs by sulforhodamine B spectrophotometric assay; type: functional
[28] = system: K562; assay: Growth inhibition against human K562 cells assessed as lethal concentration incubated for 48 hrs by sulforhodamine B spectrophotometric assay; type: functional; conditions: read-out: LC50 (the source's name)
[29] = system: RPMI-8226; assay: Growth inhibition against human RPMI-8226 cells assessed as lethal concentration incubated for 48 hrs by sulforhodamine B spectrophotometric assay; type: functional; conditions: read-out: LC50 (the source's name)
[30] = system: NCI-H460; assay: Growth inhibition against human NCI-H460 cells assessed as lethal concentration incubated for 48 hrs by sulforhodamine B spectrophotometric assay; type: functional; conditions: read-out: LC50 (the source's name)
[31] = system: HCT-15; assay: Growth inhibition against human HCT-15 cells assessed as lethal concentration incubated for 48 hrs by sulforhodamine B spectrophotometric assay; type: functional; conditions: read-out: LC50 (the source's name)
[32] = system: SF-539; assay: Growth inhibition against human SF-539 cells assessed as lethal concentration incubated for 48 hrs by sulforhodamine B spectrophotometric assay; type: functional; conditions: read-out: LC50 (the source's name)
[33] = system: SNB-75; assay: Growth inhibition against human SNB-75 cells assessed as lethal concentration incubated for 48 hrs by sulforhodamine B spectrophotometric assay; type: functional; conditions: read-out: LC50 (the source's name)
[34] = system: LOX IMVI; assay: Growth inhibition against human LOX IMVI cells assessed as lethal concentration incubated for 48 hrs by sulforhodamine B spectrophotometric assay; type: functional; conditions: read-out: LC50 (the source's name)
[35] = system: MDA-MB-435; assay: Growth inhibition against human MDA-MB-435 cells assessed as lethal concentration incubated for 48 hrs by sulforhodamine B spectrophotometric assay; type: functional; conditions: read-out: LC50 (the source's name)
[36] = system: TK-10; assay: Growth inhibition against human TK-10 cells assessed as lethal concentration incubated for 48 hrs by sulforhodamine B spectrophotometric assay; type: functional; conditions: read-out: LC50 (the source's name)
[37] = system: PC-3; assay: Growth inhibition against human PC-3 cells assessed as lethal concentration incubated for 48 hrs by sulforhodamine B spectrophotometric assay; type: functional; conditions: read-out: LC50 (the source's name)
[38] = Cytotoxicity against mouse J774.2 cells assessed as cell growth inhibition incubated for 72 hrs by MTT assay; type: toxicity, cell-based
[39] = Cytotoxicity against mouse NIH3T3 cells assessed as cell growth inhibition incubated for 72 hrs by MTT assay; type: toxicity, cell-based
[40] = Antileukemic activity against human CLL cell assessed as cell growth inhibition incubated for 72 hrs in presence of BST by MTT assay; type: functional, cell-based
[41] = system: CCRF-CEM; assay: Induction of cell cycle arrest in human CCRF-CEM cells assessed as accumulation of cells at G2/M phase at 4.14 uM incubated for 24 hrs by propidium iodide staining based flow cytometry analysis (reference value: 20.24 +/- 0.25%); type: functional
[42] = system: KB 3-1; assay: Antiproliferative activity against human KB 3-1 cells assessed as decrease in cell growth at 500 nM incubated for 72 hrs by crystal violet staining based assay; type: functional
[43] = system: Jurkat; assay: Induction of apoptosis in human Jurkat cells assessed as necrotic cells at 25 uM by DNA laddering assay; type: functional, cell-based
[44] = system: MDA-MB-231; assay: Induction of apoptosis in human MDA-MB-231 cells at 10 uM incubated for 24 hrs by Annexin-V-FITC/propidium iodide staining based flow cytometry analysis (reference value: 8.9%); type: functional
[45] = system: MDA-MB-231; assay: Induction of apoptosis in human MDA-MB-231 cells assessed as increase in caspase-8 level at 10 uM incubated for 24 hrs by flow cytometry analysis; type: functional
[46] = Acute toxicity in C57BL/6 mouse assessed as change in hemoglobin level at 20 mg/kg,ip administration observed after 22 days; type: organism-based; conditions: in vivo, 528 h, time 22 day

O=C1C2=C(C(=O)c3c(O)cccc31)C(c1ccco1)c1sc(=O)[nH]c1S2 (stereo unspecified)
growth at 10 µM [1]: -96.8% | GI50 [2]: 3.29 µM | GI50 [3]: 2.62 µM | GI50 [4]: 6.75 µM | GI50 [5]: 2.04 µM | GI50 [6]: 3.48 µM | GI50 [7]: 3.07 µM | GI50 [8]: 0.75 µM | GI50 [9]: 1.06 µM | GI50 [10]: 1.87 µM | GI50 [11]: 1.59 µM | GI50 [12]: 1.76 µM | GI50 [13]: 2.13 µM | GI50 [14]: 2.56 µM | GI50 [15]: 1.55 µM | GI50 [16]: 1.64 µM | TGI [17]: 3.74 µM | TGI [18]: 5.51 µM | TGI [19]: > 100 µM | TGI [20]: 7.61 µM | TGI [21]: 10.1 µM | TGI [22]: 7.55 µM | TGI [23]: 2.47 µM | TGI [24]: 3.26 µM | TGI [25]: 5.57 µM | TGI [26]: 3.49 µM | TGI [27]: 3.34 µM | CC50 [28]: > 100 µM | CC50 [29]: > 100 µM | CC50 [30]: 7.84 µM | CC50 [31]: 8.59 µM | CC50 [32]: 7.05 µM | CC50 [33]: 25.8 µM | CC50 [34]: 84 µM | CC50 [35]: 5.26 µM | CC50 [36]: 56.4 µM | CC50 [37]: > 100 µM | IC50 at 72 h [38]: 2.59 µM | IC50 at 72 h [39]: 6.07 µM | IC50 [40]: 8.24 µM | Activity [41]: 23.82% | Activity [42]: Active | Activity [43]: Active | Activity [44]: 28.2% | Activity [45]: 62.7% | Activity [46]: Non-Toxic
